Series [1] is described as follows: In vivo toxicity, visual observations. Particulars: number of days.
A short description of series [2]: Mice plasma concentration. Particulars: for Mice plasma concentration (single dose) / Mice plasma concentration at 10 mg/kg: one or two time points (between 30 min and 4 h); for Mice plasma concentration: presence in plasma at one or two time points (between 30 min and 4 h). It counts as in vivo.
Series [3] in a line: Neurotoxicity assay: MTS viability of primary cortical neuronal cultures. The settings on record: BL6Jx129sv, mouse, primary cortical neuronal cultures, Neuronal cells, read-out: Cytotoxicity (% viable at 1 and 10 uM); for viability at 4 days, 1 uM: test compound 1 uM; for viability at 4 days, 10 uM: test compound 10 uM. It counts as cell-based, mouse.
Series [4] can be described thus: Cytotoxicity: viability of M17 cells. The settings on record: human, M17 neuroblastoma cells, Cytotoxicity (% viable at 1 and 10 uM); for viability at 1 uM: test compound 1 uM; for viability at 10 uM: test compound 10 uM.

In the case of `Oc1c(C2CC2)ncc2cccnc12`, the “Toxicity at 30 mg/kg” value in series [1] is 6 days, none. Further, in series [2], the “Mice plasma concentration (single dose)” value was “Up to 350 ng/mL (single dose)”. Also, in series [3], the viability at 4 days, 1 uM was determined as 100% and the viability at 4 days, 10 uM was 98%.

Turning to `CCCn1cnc2c(O)c(I)ccc2c1=S`, the “Toxicity at 30 mg/kg” value in series [1] was 10 days, none. In series [4], the viability at 1 uM amounted to 89.9% and the viability at 10 uM was 86.2%. In series [2], the Mice plasma concentration entry is recorded as “Up to 1593 ng/ml ng/mL”.

For `O=c1c2c(Cl)cc(Cl)c(O)c2ncn1-c1ccc(Cl)cn1`, in series [1], the “Toxicity at 30 mg/kg” value is on record as 10 days, none. Besides, in series [4], the viability at 1 uM was found to be 86.9% and the viability at 10 uM came out at 70.5%. For the same compound, in series [3], the viability at 4 days, 1 uM turned out to be 94% and the viability at 4 days, 10 uM came to 58%.

For `O=c1[nH]cnc2c(O)c(Cl)cc(Cl)c12`, in series [1], the “Toxicity at 30 mg/kg” value is 3 days, none. Besides, the “Mice plasma concentration (single dose)” value in series [2] is on record as “Below 100 ng/mL (single dose)”. Also, in series [3], the viability at 4 days, 1 uM amounted to 100% and the viability at 4 days, 10 uM came out at 93%.

As for `CCc1cnc2c(O)c(I)ccn2c1=O`, in series [1], the “Toxicity at 10 mg/kg” value is recorded as “At 10 mg/kg 10 days, none”. Also, in series [4], the viability at 1 uM was 82.5% and the viability at 10 uM came to 23.3%. Moreover, the “Mice plasma concentration at 10 mg/kg” value in series [2] was “At 10 mg/kg: Up to 7082 ng/mL”.

`Cn1ccnc1Cn1cnc2c(O)c(Cl)cc(Cl)c2c1=O`: the “Toxicity at 30 mg/kg” value in series [1] is 10 days, none. Further, in series [4], the viability at 1 uM came out at 108% and the viability at 10 uM stood at 97.6%. In addition, in series [2], the Mice plasma concentration result was “Up to 13214.8 ng/mL”.

Regarding `O=c1c2c(Cl)cc(Cl)c(O)c2ncn1-c1cc[nH]n1`, the “Toxicity at 30 mg/kg” value in series [1] is 10 days, none. In series [4], the viability at 1 uM worked out at 126% and the viability at 10 uM worked out at 115%. Moreover, the Mice plasma concentration result in series [2] is on record as “Up to 1477.4 ng/mL”.

With `Br.O=c1c2c(Cl)cc(Cl)c(O)c2ncn1Cc1cccc(Cn2cnc3c(Cl)c(Cl)cc(Cl)c3c2=O)n1`, the “Toxicity at 30 mg/kg” value in series [1] is given as 10 days, none. In addition, in series [4], the viability at 1 uM was determined as 94.9% and the viability at 10 uM was 26.8%. Moreover, in series [3], the viability at 4 days, 1 uM is 89% and the viability at 4 days, 10 uM stood at 67%.

Take `Br.CNCc1nc2c(O)c(Cl)cc(Cl)c2c(=O)n1C`: the “Toxicity at 30 mg/kg” value in series [1] was 10 days, none. In addition, in series [4], the viability at 1 uM is 96% and the viability at 10 uM worked out at 90.6%. Further, the Mice plasma concentration result in series [2] is on record as “Up to 510.4 ng/mL”.

With `O=c1c2cccc(O)c2ncn1-c1ccc(Cl)cn1`, the “Toxicity at 30 mg/kg” value in series [1] is on record as 10 days, none. For the same compound, in series [4], the viability at 1 uM was determined as 107% and the viability at 10 uM turned out to be 122%. Moreover, the Mice plasma concentration entry in series [2] is given as “Up to 6 ng/mL”.

Turning to `O=C(NCc1ccccc1)c1cnc2c(O)cccn2c1=O`, the “Toxicity at 30 mg/kg” value in series [1] is listed as 10 days, none. In addition, in series [4], the viability at 1 uM turned out to be 92.7% and the viability at 10 uM stood at 97.3%. Moreover, the Mice plasma concentration entry in series [2] is given as “Up to 22.2 ng/mL”.

Take `CC(C)Cn1cnc2c(O)c(I)ccc2c1=O`: the “Toxicity at 10 mg/kg” value in series [1] was “At 10 mg/kg: 10 days, none”. For the same compound, in series [4], the viability at 1 uM was 111% and the viability at 10 uM was 68.2%. The “Mice plasma concentration at 10 mg/kg” value in series [2] is reported as “At 10 mg/kg: Up to 309 ng/ml ng/mL”.

As to `Cc1ccc(-n2cnc3c(O)c(Cl)cc(Cl)c3c2=O)nc1`, the “Toxicity at 30 mg/kg” value in series [1] is 10 days, none. For the same compound, the Mice plasma concentration entry in series [2] is reported as “Up to 39 ng/mL”. Moreover, in series [3], the viability at 4 days, 1 uM worked out at 96% and the viability at 4 days, 10 uM turned out to be 83%.

In the case of `CCCn1cnc2c(O)c(I)cc(Cl)c2c1=O`, in series [4], the viability at 1 uM was 120% and the viability at 10 uM came to 100%. Besides, the Mice plasma concentration result in series [2] is “Up to 4060 ng/mL”.

Consider `CCCCc1cnc2c(O)cccn2c1=S`, for which, in series [1], the “Toxicity at 30 mg/kg” value is reported as 7 days, 2/4 deaths. Moreover, the Mice plasma concentration entry in series [2] is “Up to 57 ng/ml ng/mL”.

In the case of `O=c1c2c(Cl)cc(Cl)c(O)c2ncn1CCc1ccccn1`, the “Toxicity at 30 mg/kg” value in series [1] is 10 days, none. Moreover, the Mice plasma concentration entry in series [2] was “Up to 59 ng/mL”. Also, in series [3], the viability at 4 days, 1 uM amounted to 100% and the viability at 4 days, 10 uM worked out at 92%.

As for `CCCn1cnc2c(O)c(I)ccc2c1=O`, in series [1], the “Toxicity at 30 mg/kg” value was 10 days, none. Also, the “Mice plasma concentration (single dose)” value in series [2] is on record as “Up to 1096 ng/mL (single dose)”.

Turning to `Br.Cc1cccnc1Cn1cnc2c(O)c(Cl)cc(Cl)c2c1=O`, in series [1], the “Toxicity at 30 mg/kg” value was 10 days, 3/4 mild signs. Moreover, the Mice plasma concentration result in series [2] is recorded as “Up to 439 ng/mL”. Further, in series [3], the viability at 4 days, 1 uM was found to be 99% and the viability at 4 days, 10 uM stood at 88%.

For the compound `CCNC(=O)c1cnc2c(O)c(CC)ncc2c1.Cl`, in series [4], the viability at 1 uM worked out at 84.4% and the viability at 10 uM is 92.1%. The “Mice plasma concentration (single dose)” value in series [2] was “Up to 125.5 ng/mL (Single dose)”.

In the case of `O=c1c2c(Cl)cc(Cl)c(O)c2ncn1N1CCCCC1`, the “Toxicity at 30 mg/kg” value in series [1] was 10 days, none. In series [4], the viability at 1 uM was determined as 87.9% and the viability at 10 uM is 72.7%. For the same compound, in series [3], the viability at 4 days, 1 uM stood at 98% and the viability at 4 days, 10 uM is 51%.

As to `CN(C)Cc1cnc2c(Cl)cc(Cl)c(O)c2n1.Cl`, the Mice plasma concentration entry in series [2] is listed as “Up to 1000 ng/mL”. Moreover, in series [3], the viability at 4 days, 1 uM amounted to 106% and the viability at 4 days, 10 uM turned out to be 93%.

As for `O=C(NCCc1c[nH]cn1)c1ccc2c(Cl)cc(Cl)c(O)c2n1`, in series [2], the Mice plasma concentration result is listed as “Up to 2694 ng/mL”. Moreover, in series [3], the viability at 4 days, 1 uM was determined as 91% and the viability at 4 days, 10 uM is 84%.

Take `O=c1c(-c2ccc(Cl)cc2)cnc2c(O)c(I)ccn12`: in series [1], the “Toxicity at 30 mg/kg” value is reported as 10 days, mild toxic signs. Further, the Mice plasma concentration entry in series [2] is listed as “Up to 450 ng/mL”. In addition, in series [3], the viability at 4 days, 1 uM was 41% and the viability at 4 days, 10 uM amounted to 33%.

In the case of `CN1CCCC1CCn1cnc2c(O)c(Cl)cc(Cl)c2c1=O` (stereo not shown), in series [1], the “Toxicity at 30 mg/kg” value is reported as 10 days, none. For the same compound, the “Mice plasma concentration (single dose)” value in series [2] is “Up to 262 ng/mL in mice (single dose)”. In series [3], the viability at 4 days, 1 uM was found to be 105% and the viability at 4 days, 10 uM was found to be 94%.

`O=c1c2c(Cl)cc(Cl)c(O)c2ncn1CCN1CCOCC1`: the “Toxicity at 30 mg/kg” value in series [1] is 10 days, none. Also, the “Mice plasma concentration (single dose)” value in series [2] is “Up to 10 ng/mL (single dose)”. In series [3], the viability at 4 days, 1 uM was determined as 98% and the viability at 4 days, 10 uM amounted to 81%.

Consider `CCn1nccc1-n1cnc2c(O)c(Cl)cc(Cl)c2c1=O`, for which the “Toxicity at 30 mg/kg” value in series [1] was 10 days, none. Besides, in series [2], the Mice plasma concentration result is given as “Up to 3896 ng/mL”. In addition, in series [3], the viability at 4 days, 1 uM is 102% and the viability at 4 days, 10 uM was 94%.

In the case of `CC(C)n1cnc2c(O)c(I)ccc2c1=O`, the “Toxicity at 30 mg/kg” value in series [1] is reported as 10 days, 1/4 deaths. In addition, in series [2], the Mice plasma concentration result is recorded as “Up to 277 ng/ml ng/mL”.

Take `CN1CCN(n2cnc3c(O)c(Cl)cc(Cl)c3c2=O)CC1`: the “Toxicity at 30 mg/kg” value in series [1] is reported as 10 days, none. The Mice plasma concentration result in series [2] is “Up to 207 ng/mL”. Besides, in series [3], the viability at 4 days, 1 uM is 96% and the viability at 4 days, 10 uM amounted to 91%.

Regarding `COc1ccc(-n2cnc3c(O)c(Cl)cc(Cl)c3c2=O)nc1`, in series [1], the “Toxicity at 30 mg/kg” value is given as 10 days, none. The “Mice plasma concentration (single dose)” value in series [2] is listed as “Up to 80 ng/mL (single dose)”. Besides, in series [3], the viability at 4 days, 1 uM was 122% and the viability at 4 days, 10 uM came out at 93%.

The values above are taken from US20100069393A1, “METHOD OF TREATMENT AND AGENTS USEFUL FOR SAME” (PRANA BIOTECHNOLOGY LIMITED, priority 2006, published 2010).
